Measured values published in patent publication US6699889B2, “Use of glucose uptake enhancer for reducing post-ischemic injury of the heart” (SmithKline Beecham p.l.c., priority 1998, dated 2004).

Experiments:
[1] = test system: isolated working hearts from STZ-diabetic rats; assay: Isolated working hearts from STZ-diabetic male Wistar rats: baseline ventricular function and zero-flow ischaemia and re-perfusion; settings: diabetic rat hearts
Description: (§1) A solution of streptozotocin (STZ commercially available) was prepared in citrate buffer (40 mg/ml).
The development of diabetes and its persistence were monitored by serial quantitative measurements of glucose in the urine with reagent strips. On the day of the experiment, the severity of diabetes was assessed by measuring glucose concentrations from blood samples collected at the time of heart excision. Only rats with plasma glucose levels exceeding 20 mM were considered diabetic and included in these experiments.
(§2) Perfusion of isolated hearts: Rats were anaesthetized using thiopental sodium (50 mg/kg body weight intraperitoneally). Hearts from normoglycaemic and one-month STZ-induced diabetic rats, were quickly removed and immersed in ice-cold buffer to produce an immediate cessation of contractility. The aorta was dissected free and then mounted onto a cannula attached to a perfusion apparatus. Retrograde perfusion of the heart was started for 10 min by the Langendorff method and then switched to perfusion using the working-heart technique. […] The perfusate was not recirculated. Preload was held at a pressure of 15 cm H2O and afterload, as well as coronary perfusion pressure, were kept constant at 80 cm H2O.
Stroke volume (ml/beat) was derived by dividing cardiac output by heart rate. […]
(§3) Statistical significance of differences was determined using Student's t-test.

[2] = test system: isolated working hearts from male Wistar rats; assay: Isolated working hearts from normal male Wistar rats: baseline ventricular function and recovery after 30 min zero-flow ischaemia and re-perfusion; settings: normal rat hearts
Description: as §1
An acclimatisation period of at least one week was allowed prior to experiment.
as §2
Stroke volume (ml/beat) was derived by dividing cardiac output by heart rate.
Induction of global ischaemia and re-perfusion: Total ischaemia was initiated by clamping the left atrium and the aortic perfusion tubes and reducing coronary flow to zero for 30 minutes. The hearts were then re-perfused at 37° C. in working heart mode and recovery of ventricular function was followed for 30 minutes.
as §3

CN(CCOc1ccc(CC2SC(=O)NC2=O)cc1)c1ccccn1 (centres unmarked) [Compound (I), 5-[4-[2-(N-methyl-N-(2-pyridyl)amino)ethoxy]benzyl]thiazolidine-2,4-dione]
Protective properties in hearts subjected to zero-flow ischaemia in vitro [1]: protective properties of rapid onset | Protective properties in hearts subjected to zero-flow ischaemia in vitro [2]: protective properties of rapid onset
